Experimental data as given in patent US20090203800A1, “Cytostatic Composition” (priority 2008, published 2009).

Columns and labels:
Type in all cases: cell-based
Details in all cases: 5-FU 1.0 mg/ml
[1] = test system: 27 human tumor xenografts; test: clonogenic assay, whole test panel
Experimental: The antitumor efficacy of cytostatic composition as described above was evaluated in 27 human tumor xenografts in vitro using a clonogenic assay. The tumor test panel comprised 1 to 4 models of 15 different human tumor types, which were bladder cancer, colon, gastric, head and neck, liver, non small cell lung (adeno and large cell), small cell lung, mammary, ovary, pancreatic, prostate and renal cancer as well as melanoma, pleuramesothelioma, and sarcoma. The cytostatic composition was studied at 6 concentrations ranging from 0.001% to 100.0%. Antitumor effects were recorded as inhibition of colony formation in relation to untreated controls (T/C-values).
In the clonogenic assay (=tumor colony assay, TCA), inhibition of colony formation of tumor stem cells growing in soft agar is examined. […]
The clonogenic assay was performed in a 24-well format according to a modified two-layer soft agar assay introduced by Hamburger & Salmon. […] Cultures were incubated at 37° C. and 7.5% CO2 in a humidified atmosphere for 6-18 days and monitored closely for colony growth using an inverted microscope. […]
with x the specific tumor model, and n the total number of tumor models studied. If an IC50- or IC70-value could not be determined within the examined dose range (because a compound was either too active or lacked activity), the lowest or highest concentration studied was used for the calculation. […]

[2] = test system: human tumor xenograft HNXF 536 (Head & neck); test: clonogenic assay (tumor colony assay)
Experimental: (§1) In the clonogenic assay (=tumor colony assay, TCA), inhibition of colony formation of tumor stem cells growing in soft agar is examined. Tumor stem cells, which are responsible for growth, the metastatic and infiltrative potential of a tumor, are prepared directly from human tumor xenografts growing in nude mice.
(§2) Cytostatic was tested at 6 concentrations. The highest concentration tested was 0.004%, as shown below, which was the maximum allowed concentration of the vehicle in the test set as 100% of Cytostatic. IMDM supplemented with 10% v/v saline solution was also used as a control vehicle.
(§3) Solid human tumor xenografts growing subcutaneously in serial passages in thymus aplastic nude mice (NMRI nu/nu strain,) were removed under sterile conditions, mechanically disaggregated and subsequently incubated with an enzyme cocktail consisting of collagenase type IV (41 U/ml) (Sigma), DNase I (125 U/ml) (Roche), hyaluronidase type III (100 U/ml) (Sigma) and dispase II (1.0 U/ml) (Roche) in RPMI 1640-Medium (Life Technologies) at 37° C. for 45 minutes. Cells were passed through sieves of 200 μm and 50 μm mesh size and washed twice with sterile PBS-buffer. The percentage of viable cells was determined in a Neubauer-hemocytometer using trypan blue exclusion.
(§4) The clonogenic assay was performed in a 24-well format according to a modified two-layer soft agar assay introduced by Hamburger & Salmon. The bottom layer consisted of 0.2 ml/well IMDM (Life Technologies) (supplemented with 20% (v/v) fetal calf serum (Sigma), 0.01% (w/v) gentamicin (Life Technologies) and 0.75% (w/v) agar). 2×10^4 to 4×10^4 cells were added to 0.2 ml of the same culture medium supplemented with 0.4% (w/v) agar and plated in 24-multiwell dishes onto the bottom layer. The test compound was applied by continuous exposure (drug overlay) in 0.2 ml culture medium. Every dish included six untreated control wells and drug-treated groups in triplicate at 6 concentrations. Cultures were incubated at 37° C. and 7.5% CO2 in a humidified atmosphere for 6-18 days and monitored closely for colony growth using an inverted microscope. Within this period, in vitro tumor growth led to the formation of colonies with a diameter of >50 μm. At the time of maximum colony formation, counts were performed with an automatic image analysis system (OMNICON 3600, Biosys GmbH). 24 hours prior to evaluation, vital colonies were stained with a sterile aqueous solution of 2-(4-iodophenyl)-3-(4-nitrophenyl)-5-phenyltetrazolium chloride (1 mg/ml, 100 μl/well) (Sigma).
(§5) Drug effects were expressed by the percentage of colony formation, obtained by comparison of the mean number of colonies in the treated wells with the mean colony count of the untreated controls (relative colony count expressed by the test-versus-control value, T/C-value [%]):
(§6) IC50- and IC70-values, being the drug concentrations necessary to inhibit colony formation by 50% (T/C=50%) and 70% (T/C=30%), respectively, were determined by plotting compound concentration versus relative colony count. Mean IC50- and IC70-values were calculated according to the formula

[3] = test system: human tumor xenograft PRXF MRIH1579 (Prostate); test: clonogenic assay (tumor colony assay)
Experimental: as §1, §2, §3, §4, §5, §6

[4] = test system: human tumor xenograft BXF 1218 (Bladder); test: clonogenic assay (tumor colony assay)
Experimental: as §1, §2, §3, §4, §5, §6

[5] = test system: human tumor xenograft CXF 1103 (Colon); test: clonogenic assay (tumor colony assay)
Experimental: as §1, §2, §3, §4, §5, §6

[6] = test system: human tumor xenograft MEXF 514 (Melanoma); test: clonogenic assay (tumor colony assay)
Experimental: as §1, §2, §3, §4, §5, §6

[7] = test system: human tumor xenograft PAXF 736 (Pancreas); test: clonogenic assay (tumor colony assay)
Experimental: as §1, §2, §3, §4, §5, §6

[8] = test system: human tumor xenograft LXFS 615 (Lung, SC); test: clonogenic assay (tumor colony assay)
Experimental: as §1, §2, §3, §4, §5, §6

[9] = test system: human tumor xenograft OVXF 899 (Ovary); test: clonogenic assay (tumor colony assay)
Experimental: as §1, §2, §3, §4, §5, §6

[10] = test system: human tumor xenograft PXF 1118 (Pleuramesothelioma); test: clonogenic assay (tumor colony assay)
Experimental: as §1, §2, §3, §4, §5, §6

[11] = test system: human tumor xenograft LXFA 526 (Lung, NSC); test: clonogenic assay (tumor colony assay)
Experimental: as §1, §2, §3, §4, §5, §6

[12] = test system: human tumor xenograft RXF 944LX (Kidney); test: clonogenic assay (tumor colony assay)
Experimental: as §1, §2, §3, §4, §5, §6

[13] = test system: human tumor xenograft LXFL 529 (Lung, NSC); test: clonogenic assay (tumor colony assay)
Experimental: as §1, §2, §3, §4, §5, §6

[14] = test system: human tumor xenograft OVXF 550 (Ovary); test: clonogenic assay (tumor colony assay)
Experimental: as §1, §2, §3, §4, §5, §6

[15] = test system: human tumor xenograft LXFS 650 (Lung, SC); test: clonogenic assay (tumor colony assay)
Experimental: as §1, §2, §3, §4, §5, §6

[16] = test system: human tumor xenograft MEXF 1539 (Melanoma); test: clonogenic assay (tumor colony assay)
Experimental: as §1, §2, §3, §4, §5, §6

[17] = test system: human tumor xenograft PRXF DU145 (Prostate); test: clonogenic assay (tumor colony assay)
Experimental: as §1, §2, §3, §4, §5, §6

[18] = test system: human tumor xenograft MAXF 1384 (Breast); test: clonogenic assay (tumor colony assay)
Experimental: as §1, §2, §3, §4, §5, §6

[19] = test system: human tumor xenograft MAXF 401 (Breast); test: clonogenic assay (tumor colony assay)
Experimental: as §1, §2, §3, §4, §5, §6

[20] = test system: human tumor xenograft LIXF 575 (Liver); test: clonogenic assay (tumor colony assay)
Experimental: as §1, §2, §3, §4, §5, §6

[21] = test system: human tumor xenograft GXF 1172 (Stomach); test: clonogenic assay (tumor colony assay)
Experimental: as §1, §2, §3, §4, §5, §6

[22] = test system: human tumor xenograft LXFA 289 (Lung, NSC); test: clonogenic assay (tumor colony assay)
Experimental: as §1, §2, §3, §4, §5, §6

[23] = test system: human tumor xenograft LXFL 1647 (Lung, NSC); test: clonogenic assay (tumor colony assay)
Experimental: as §1, §2, §3, §4, §5, §6

[24] = test system: human tumor xenograft MEXF 989 (Melanoma); test: clonogenic assay (tumor colony assay)
Experimental: as §1, §2, §3, §4, §5, §6

[25] = test system: human tumor xenograft CXF 280 (Colon); test: clonogenic assay (tumor colony assay)
Experimental: as §1, §2, §3, §4, §5, §6

[26] = test system: human tumor xenograft MAXF 1322 (Breast); test: clonogenic assay (tumor colony assay)
Experimental: as §1, §2, §3, §4, §5, §6

[27] = test system: human tumor xenograft RXF 631 (Kidney); test: clonogenic assay (tumor colony assay)
Experimental: as §1, §2, §3, §4, §5, §6

[28] = test system: human tumor xenograft SXF 627 (Sarcoma); test: clonogenic assay (tumor colony assay)
Experimental: as §1, §2, §3, §4, §5, §6

For O=c1[nH]cc(F)c(=O)[nH]1 [5-FU, 5-fluorouracil], the “antitumor activity of positive control of growth inhibition” value [1] was “good antitumor activity”, the “5-FU control, T/C [%]” value [2] was 9% and the “5-FU control, T/C [%] class” value [2] was “+++ (+++ (T/C ≦ 10))”. The “5-FU control, T/C [%]” value [3] was 7%, the “5-FU control, T/C [%] class” value [3] was “+++ (+++ (T/C ≦ 10))” and the “5-FU control, T/C [%]” value [4] was 2%. The “5-FU control, T/C [%] class” value [4] was “+++ (+++ (T/C ≦ 10))”, the “5-FU control, T/C [%]” value [5] was 10% and the “5-FU control, T/C [%] class” value [5] was “+++ (+++ (T/C ≦ 10))”. For the same molecule, the “5-FU control, T/C [%]” value [6] was 4%, the “5-FU control, T/C [%] class” value [6] was “+++ (+++ (T/C ≦ 10))” and the “5-FU control, T/C [%]” value [7] was 5%. The “5-FU control, T/C [%] class” value [7] was “+++ (+++ (T/C ≦ 10))”, the “5-FU control, T/C [%]” value [8] was 14% and the “5-FU control, T/C [%] class” value [8] was “++ (++ (10 < T/C < 30))”. The “5-FU control, T/C [%]” value [9] was 31%, the “5-FU control, T/C [%] class” value [9] was “+ (+ (30 ≦ T/C ≦ 50))” and the “5-FU control, T/C [%]” value [10] was 2%. For the same molecule, the “5-FU control, T/C [%] class” value [10] was “+++ (+++ (T/C ≦ 10))”, the “5-FU control, T/C [%]” value [11] was 2% and the “5-FU control, T/C [%] class” value [11] was “+++ (+++ (T/C ≦ 10))”. For the same molecule, the “5-FU control, T/C [%]” value [12] was 1%, the “5-FU control, T/C [%] class” value [12] was “+++ (+++ (T/C ≦ 10))” and the “5-FU control, T/C [%]” value [13] was 0%. The “5-FU control, T/C [%] class” value [13] was “+++ (+++ (T/C ≦ 10))”, the “5-FU control, T/C [%]” value [14] was 33% and the “5-FU control, T/C [%] class” value [14] was “+ (+ (30 ≦ T/C ≦ 50))”. For the same molecule, the “5-FU control, T/C [%]” value [15] was 0%, the “5-FU control, T/C [%] class” value [15] was “+++ (+++ (T/C ≦ 10))” and the “5-FU control, T/C [%]” value [16] was 0%. For the same molecule, the “5-FU control, T/C [%] class” value [16] was “+++ (+++ (T/C ≦ 10))”, the “5-FU control, T/C [%]” value [17] was 1% and the “5-FU control, T/C [%] class” value [17] was “+++ (+++ (T/C ≦ 10))”. For the same molecule, the “5-FU control, T/C [%]” value [18] was 4%, the “5-FU control, T/C [%] class” value [18] was “+++ (+++ (T/C ≦ 10))” and the “5-FU control, T/C [%]” value [19] was 4%. The “5-FU control, T/C [%] class” value [19] was “+++ (+++ (T/C ≦ 10))”, the “5-FU control, T/C [%]” value [20] was 4% and the “5-FU control, T/C [%] class” value [20] was “+++ (+++ (T/C ≦ 10))”. For the same molecule, the “5-FU control, T/C [%]” value [21] was 15%, the “5-FU control, T/C [%] class” value [21] was “++ (++ (10 < T/C < 30))” and the “5-FU control, T/C [%]” value [22] was 12%. The “5-FU control, T/C [%] class” value [22] was “++ (++ (10 < T/C < 30))”, the “5-FU control, T/C [%]” value [23] was 5% and the “5-FU control, T/C [%] class” value [23] was “+++ (+++ (T/C ≦ 10))”. For the same molecule, the “5-FU control, T/C [%]” value [24] was 0%, the “5-FU control, T/C [%] class” value [24] was “+++ (+++ (T/C ≦ 10))” and the “5-FU control, T/C [%]” value [25] was 21%. For the same molecule, the “5-FU control, T/C [%] class” value [25] was “++ (++ (10 < T/C < 30))”, the “5-FU control, T/C [%]” value [26] was 0% and the “5-FU control, T/C [%] class” value [26] was “+++ (+++ (T/C ≦ 10))”. For the same molecule, the “5-FU control, T/C [%]” value [27] was 4%, the “5-FU control, T/C [%] class” value [27] was “+++ (+++ (T/C ≦ 10))” and the “5-FU control, T/C [%]” value [28] was 2%. For the same molecule, the “5-FU control, T/C [%] class” value [28] was “+++ (+++ (T/C ≦ 10))”.
